pEC50, pIC50: −log10 of the molar value.
Columns and labels:
ABCG2 = target: T1, ABCG2 (Homo sapiens, UniProt Q9UNQ0); experiment: ABCG2 genistein net B→A flux in Caco-2 monolayers; format: cell-based
T1 construct: monolayers of Caco-2 cells expressing ABCG2 were grown on a permeable support; endogenous in cells; host or cells: Caco-2
T1 sequence (Q9UNQ0 1-655): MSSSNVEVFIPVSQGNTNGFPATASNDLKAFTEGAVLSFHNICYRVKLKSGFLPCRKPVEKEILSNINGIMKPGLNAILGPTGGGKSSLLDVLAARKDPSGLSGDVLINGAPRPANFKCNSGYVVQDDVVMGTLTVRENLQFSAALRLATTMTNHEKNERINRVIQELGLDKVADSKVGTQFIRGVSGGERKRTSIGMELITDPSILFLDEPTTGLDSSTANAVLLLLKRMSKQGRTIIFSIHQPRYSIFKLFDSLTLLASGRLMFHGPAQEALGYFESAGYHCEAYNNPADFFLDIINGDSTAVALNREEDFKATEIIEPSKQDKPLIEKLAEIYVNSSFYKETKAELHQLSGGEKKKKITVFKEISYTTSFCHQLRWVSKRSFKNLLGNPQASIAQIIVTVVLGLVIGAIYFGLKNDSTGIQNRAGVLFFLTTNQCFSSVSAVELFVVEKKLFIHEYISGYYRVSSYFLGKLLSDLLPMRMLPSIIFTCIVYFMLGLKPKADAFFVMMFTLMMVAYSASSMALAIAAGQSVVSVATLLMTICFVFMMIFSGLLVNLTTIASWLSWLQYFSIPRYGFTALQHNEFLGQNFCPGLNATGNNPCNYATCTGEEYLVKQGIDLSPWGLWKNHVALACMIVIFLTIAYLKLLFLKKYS
Experimental: For ABCG2, monolayers of Caco-2 cells expressing ABCG2 were grown on a permeable support ([…] membranes) in 24-transwell plates. […] Each treatment was assayed in triplicate: [^3H]-genistein substrate at 2 nM was then added for an additional 120 minutes at 37 °C. For basolateral-to-apical (B → A) flux measurements, genistein was placed in the basolateral compartment only (donor well) and a sample was taken after the 120-minute incubation period from the apical compartment (receiver well). For apical-to-basolateral (A → B) flux measurements, genistein was placed in the apical compartment only (donor well) and a sample was taken after the 120-minute incubation period from the basolateral compartment (receiver well). Samples were then subjected to scintillation counting. The inhibition of BCRP/ABCG2 was then calculated by the net B → A flux method. […]
The net transport in the B → A direction was determined by subtracting the substrate flux in the A → B direction from that in the B → A direction: NetB→Aflux=PappB→A‐PappA→B.
Percent inhibition is calculated by dividing the Net (B → A) flux in the presence of the inhibitor by the Net (B → A) flux in the absence of the inhibitor (inh): PercentInhibition=100‐100*NetB→Ainh/meanNetB→A.

PPARγ = target: T2, PPARγ (Homo sapiens, UniProt P37231); experiment: Human PPARγ luciferase reporter assay; format: cell-based; details: reporter cells, 24 hours, up to 100 μM
T2 sequence (P37231 238-505 limits assumed): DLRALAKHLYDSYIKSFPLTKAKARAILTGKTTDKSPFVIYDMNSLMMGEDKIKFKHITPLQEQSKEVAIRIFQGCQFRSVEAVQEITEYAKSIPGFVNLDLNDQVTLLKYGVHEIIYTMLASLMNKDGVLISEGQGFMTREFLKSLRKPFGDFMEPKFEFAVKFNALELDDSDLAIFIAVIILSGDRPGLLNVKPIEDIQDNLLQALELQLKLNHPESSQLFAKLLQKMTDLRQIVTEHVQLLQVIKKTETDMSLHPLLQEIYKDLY
Experimental: This assay was performed using nonhuman mammalian cells engineered to provide a PPARγ-responsive luciferase reporter gene and constitutive, high levels of PPARγ (Indigo Biosciences catalog number IB00101). Cells were incubated with compounds for 24 hours, and then luciferase activity was measured using a luminometer. Agonist activity was reported as fold activation over a vehicle control. A positive control agonist, rosiglitazone, was included in each batch run to verify cell integrity.

healthy volunteers = experiment: Clinical effect on fractional excretion of uric acid (phase 1 RDEA594-109); format: in vivo, human; details: for Peak FEUA: within 6 hours, baseline 5.8 %
Experimental: In each treatment period, plasma samples were collected within 30 minutes before dosing (pre-dose) and at 0.5, 1, 1.5, 2, 3, 4, 5, 6, 8, 10, 12, 16, 24, 30, 36, and 48 hours post-dose. Urine (total catch) was collected pretreatment at hours –24 to –18, –18 to –12, and –12 to 0, and post-dose at hours 0 to 6, 6 to 12, 12 to 24, 24 to 30, 30 to 36, and 36 to 48.
After protein precipitation of the samples, lesinurad levels in plasma and urine were measured at Ardea Biosciences by quantitative high performance liquid chromatography with tandem mass spectrometry. […] The parameters from individual profiles of lesinurad were determined using noncompartmental methods. Urine samples were analyzed for uric acid and creatinine using enzymatic methods by Covance Clinical Research Unit (Dallas, TX, USA), and pharmacodynamic (PD) parameters were determined by Covance Clinical Research Unit using SAS, Version 8.2 (SAS Institute Inc). Calculated PD parameters for uric acid included urinary excretion, renal clearance, and FEUA. FEUA was calculated by dividing the uric acid clearance by the creatinine clearance.

[1] = cited from earlier work
[2] = cited from earlier work; remark: listed apart in the source
OAT1 and OAT3 = details: in vivo; cited from earlier work

O=C(O)CSc1nnc(Br)n1-c1ccc(C2CC2)c2ccccc12 [Lesinurad, 2-((5-bromo-4-(4-cyclopropylnaphthalen-1-yl)-4H-1,2,4-triazol-3-yl)thio) acetic acid]
pIC50 (ABCG2; Caco-2, 2 nM [3H]-genistein, 120 min, read-out: Potency against ABCG2): < 4.00
Effect on ABCG2 activity (ABCG2; Caco-2, at up to 100 μM): no effect
PPARγ activation (PPARγ): no PPARγ agonism
pEC50 (healthy volunteers; Homo sapiens, single 200-, 400- or 600-mg doses, healthy volunteers, read-out: Half-maximal effective plasma concentration for elevating FEUA): 4.89
FEUA in some individuals with high plasma lesinurad (healthy volunteers; healthy volunteers, single doses): up to 35%
Elevation of FEUA (healthy volunteers; single 200-mg dose, after 6 hours, p < 0.001): 3.6 fold
Peak FEUA (healthy volunteers; single 200-mg oral dose): 21.8%
Peak FEUA (healthy volunteers; single 400-mg oral dose): 26.7%
Peak FEUA (healthy volunteers; single 600-mg oral dose): 32.3%
Fraction of compound excreted via urine [1]: approximately one third
Plasma protein binding [2]: 98.4%
Effect on renal clearance and PD of the OAT substrate furosemide (OAT1 and OAT3): no effect

From paper PMC5048659 (Arthritis Research & Therapy, 2016)
